According to ChEMBL document CHEMBL1126193, “Omega-[(omega-arylalkyl)thienyl]alkanoic acids: from specific LTA4 hydrolase inhibitors to LTB4 receptor antagonists” (J Med Chem, 1992):

test system: Leukotriene A-4 hydrolase (Sus scrofa); assay: Tested for Percentage inhibition of LTA4 hydrolase at 2*10e-5M concentration in porcine leukocyte homogenates

| SMILES | inhibition |
| --- | --- |
| O=C(O)CCCCCCc1ccsc1CCCc1ccc(Cl)cc1 | 24% |
| O=C(O)CCCCCCc1csc(CCCc2ccc(O)cc2)c1 | 100% |
| O=C(O)CCCCCCc1csc(CCCc2ccc(Cl)cc2)c1 | 73% |
| Cc1cc(CCCCCCC(=O)O)c(CCCc2ccccc2)s1 | 0% |
| COc1ccc(CCCc2cc(CCCCCCC(=O)O)cs2)cc1 | 68% |
| O=C(O)CCCCCCc1sc(-c2ccccc2)cc1CCCc1ccccc1 | 0% |

test system: Leukotriene A-4 hydrolase (Sus scrofa); assay: Tested for 50% inhibition of LTA4 hydrolase at 2*10e-5M concentration in porcine leukocyte homogenates

| SMILES | inhibition |
| --- | --- |
| O=C(O)CCCCCCc1sccc1Cc1ccccc1 | 0% |
| O=C(O)CCCCCCc1csc(CCc2ccccc2)c1 | 49% |
| O=C(O)CCCCCCc1cc(CCCCCc2ccccc2)cs1 | 49% |
| O=C(O)CCCCCc1cc(CCCc2ccccc2)cs1 | 32% |
| O=C(O)CCCCCCc1ccsc1CCCc1ccccc1 | 0% |
| O=C(O)CCCCCCc1cc(-c2ccccc2)cs1 | 25% |
| O=C(O)CCCCc1sccc1CCCc1ccccc1 | 0% |
| O=C(O)CCCCCCc1ccc(CCCc2ccccc2)s1 | 84% |
| O=C(O)CCCCCCc1sccc1CCCCCc1ccccc1 | 9% |
| O=C(O)CCCCCCc1cc(CCCc2ccccc2)cs1 | 42% |
| O=C(O)CCCCCCc1ccsc1CCc1ccccc1 | 0% |
| O=C(O)CCCCCCc1sccc1CCCc1ccccc1 | 0% |
| O=C(O)CCCCc1cc(CCCc2ccccc2)cs1 | 0% |
| O=C(O)CCCCCCc1csc(Cc2ccccc2)c1 | 68% |
| O=C(O)CCCCCCc1csc(CCCc2ccccc2)c1 | 100% |
| O=C(O)CCCCCCc1cc(Cc2ccccc2)cs1 | 70% |

biological target: not listed separately; assay: compound was tested for 50% inhibition of LTA4 hydrolase at 2*10e-5M concentration in porcine leukocyte homogenates; type: tissue-based, Sus scrofa

| SMILES | IC50 |
| --- | --- |
| O=C(O)CCCCCCc1ccc(CCCc2ccccc2)s1 | 2900 nM |
| O=C(O)CCCCCCc1csc(CCCc2ccccc2)c1 | 1500 nM |
| O=C(O)CCCCCCc1cc(Cc2ccccc2)cs1 | 9600 nM |

test system: Leukotriene B4 receptor 1 (Cavia porcellus); assay: Percent inhibition of [3H]-LTB4 binding to guinea pig spleen Leukotriene B4 receptor at the concentration of 10e-5 M

| SMILES | inhibition |
| --- | --- |
| O=C(O)CCCCCCc1ccsc1C(=O)CCc1ccccc1 | 17% |
| O=C(O)CCCCCCc1sccc1Cc1ccccc1 | 15% |
| O=C(O)CCCCCCc1cc(CCCCCc2ccccc2)cs1 | 31% |
| O=C(O)CCCCCc1cc(CCCc2ccccc2)cs1 | 36% |
| O=C(O)CCCCCCc1cc(-c2ccccc2)cs1 | 0% |
| O=C(O)CCCCCCc1sccc1CCCCCc1ccccc1 | 39% |
| O=C(O)CCCCCCc1cc(CCCc2ccccc2)cs1 | 38% |
| Cc1cc(C(=O)CCCCCC(=O)O)c(CCCc2ccccc2)s1 | 51% |
| O=C(O)CCCCCCc1ccsc1CCc1ccccc1 | 38% |
| O=C(O)CCCCCC(=O)c1sccc1CCCc1ccccc1 | 59% |
| O=C(O)CCCCc1cc(CCCc2ccccc2)cs1 | 35% |
| O=C(O)CCCCCCc1csc(CCCc2ccccc2)c1 | 10% |
| O=C(O)CCCCCCc1cc(Cc2ccccc2)cs1 | 33% |
